Data: patent publication US10787444B2, “Compounds for the modulation of myc activity” (Syros Pharmaceuticals, Inc., priority 2015, dated 2020)
Read-outs that look alike come from different tables or passages of the source.

Tests used:
[1] = target: T1, c-Myc/Max/Ebox DNA (Homo sapiens, UniProt P01106); assay: c-Myc/Max/Ebox DNA AlphaScreen Assay; assay type: binding; conditions: Table 2, compounds of FIG. 1; calculated IC50 class
T1 construct: his6 (cleaved yes)
Protocol: Compounds of the invention were assayed for c-Myc/Max/EBox activity as described in the following protocol. Human his6-c-Myc and his6-Max were used with biotinylated DNA containing a single Ebox sequence (biotin[…]) purchased from MWG Operon. Free c-Myc was generated from his6-c-Myc through thrombin cleavage of the his6 tag. For 384-well plate assays, 10 μL of a 2× solution of free c-Myc (20 nM final), Ni^2+ coated Acceptor Beads (25 μg/ml final), and biotinylated Ebox oligo (10 nM final) were added to 384-well plates with a Biotek EL406 liquid handler. 50 nL of compounds from stock plates were added by pin transfer using a Janus Workstation (PerkinElmer), allowing the compounds to interact with c-Myc prior to c-Myc binding with Max. In the current assay, DMSO was not allowed to exceed 2% v/v of the assay. 10 μl of 2× master mix containing streptavidin-coated donor beads (25 μg/ml final) and his6-Max (5 nM) were added. AlphaScreen measurements were performed on an Envision plate reader (PerkinElmer) utilizing the manufacturer's protocol.
Both master mixes were made in room temperature assay buffer (50 mM HEPES, 150 mM NaCl, 0.2% w/v BSA, 0.02% w/v Tween20, 40 μg/ml glycogen, 500 μM DTT, pH 8.0, wherein both DTT and glycogen were added fresh). Alpha beads were added to respective master solutions. All subsequent steps were performed in low light conditions. Solution 1:2× solution of components with final concentrations of c-Myc Ni-coated Acceptor Beads (25 μg/ml), and biotinylated Ebox oligo (10 nM). Solution 2:2× solution of streptavidin-coated donor beads (25 μg/ml final) and his6-Max 10 μL. […] 50 nL of compounds from stock plates were added by pin transfer using a Janus Workstation. Solution 2 (10 μl) was added with the liquid handler. Plates were sealed with foil to block light exposure and prevent evaporation. Plates were very briefly centrifuged followed by 2 hour incubation. […] Excitation was at 680 nm for donor bead release of singlet oxygen and emission was read with a bandpass filter from 520-620 nm.

[2] = system: human small lung cancer cell line H2171; assay: Cell Viability Assay (ATPlite); assay type: cell-based; conditions: Table 2, compounds of FIG. 1, H2171 cells, three days, ATPlite, calculated IC50 class, read-out: H2171 Activity
Protocol: Compounds of the invention were assayed for cell viability using the human small lung cancer cell line H2171 as described in the following protocol. Cells were counted and adjusted to 20,000 cells/mL. Using a Biotek EL406, 50 μL of cells in media were distributed into 384 well white plates from Thermo. Immediately after plating, compound in DMSO was distributed to plates. Compounds were added to plates using a 50 nL 384 well pin transfer manifold on a Janus workstation. Stocks were arrayed in 10 point dose response in DMSO stock in 384 well Greiner compound plates. After the addition of compounds, plates were incubated for three days in a 37° C. incubator. Cell viability was read out using ATPlite from Perkin Elmer. Lyophilized powder was resuspended in lysis buffer and diluted 1:2 with deionized water. 25 μL of this solution was added to each well using the Biotek liquid handler. Plates were incubated for 15 minutes at room temperature before signal was read on an Envision Plate Reader. The data from this assay are summarized in Tables 2 and 3 below (H2171 activity).

T1 sequence (P01106 whole entry): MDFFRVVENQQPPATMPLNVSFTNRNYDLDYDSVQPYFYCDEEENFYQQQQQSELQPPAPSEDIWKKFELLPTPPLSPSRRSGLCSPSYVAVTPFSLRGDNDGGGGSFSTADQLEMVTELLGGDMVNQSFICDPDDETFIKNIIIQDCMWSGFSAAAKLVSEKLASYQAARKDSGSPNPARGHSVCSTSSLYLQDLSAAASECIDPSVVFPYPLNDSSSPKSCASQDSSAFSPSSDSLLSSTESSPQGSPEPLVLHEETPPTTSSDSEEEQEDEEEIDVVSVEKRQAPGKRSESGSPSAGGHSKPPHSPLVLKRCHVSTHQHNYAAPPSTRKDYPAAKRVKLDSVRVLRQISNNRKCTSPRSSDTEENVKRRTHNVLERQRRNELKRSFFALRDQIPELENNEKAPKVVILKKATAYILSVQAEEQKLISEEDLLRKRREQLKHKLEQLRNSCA

Row | SMILES | IC50 [1] | IC50 [2] | IC50 ([2]; Homo sapiens, NCI-H2171, 72 h)
1 | COCCNCCC(=O)Nc1sc2c(c1-c1nc3cc(-c4ccncc4)ccc3s1)CC(C)NC2C (single isomer, unassigned) [Compound 523, N-(5,7-dimethyl-3-(5-(pyridin-4-yl)benzo[d]thiazol-2-yl)-4,5,6,7-tetrahydrothieno[2,3-c]pyridin-2-yl)-3-((2-methoxyethyl)amino)propanamide] | 1000 to 10000 nM | 300 to 1000 nM | –
2 | COCCNCCC(=O)Nc1sc2c(c1-c1nc3cc(-c4cccnc4)ccc3s1)CC(C)NC2C (single isomer, unassigned) [Compound 526, N-(5,7-Dimethyl-3-(5-(pyridin-3-yl)benzo[d]thiazol-2-yl)-4,5,6,7-tetrahydrothieno[2,3-c]pyridin-2-yl)-3-((2-methoxyethyl)amino)propanamide] | 1000 to 10000 nM | 300 to 1000 nM | –
3 | COCCNCCC(=O)Nc1sc2c(c1-c1nc3ccc(-c4cccnc4)cc3s1)CC(C)NC2C (single isomer, unassigned) [Compound 527, N-(5,7-Dimethyl-3-(6-(pyridin-3-yl)benzo[d]thiazol-2-yl)-4,5,6,7-tetrahydrothieno[2,3-c]pyridin-2-yl)-3-((2-methoxyethyl)amino)propanamide] | 300 to 1000 nM | < 300 nM | –
4 | COCCNCCC(=O)Nc1sc2c(c1-c1nc3ccc(-c4cccnc4)cc3s1)CC(C)NC2C (single isomer, unassigned) [Compound 528, N-(5,7-Dimethyl-3-(6-(pyridin-3-yl)benzo[d]thiazol-2-yl)-4,5,6,7-tetrahydrothieno[2,3-c]pyridin-2-yl)-3-((2-methoxyethyl)amino)propanamide] | 300 to 1000 nM | 300 to 1000 nM | –
5 | CCC1Cc2c(sc(NC(=O)CCNCCOC)c2-c2nc3ccccc3s2)C(CC)N1 (single isomer, unassigned) [Compound 536, N-(3-(Benzo[d]thiazol-2-yl)-5,7-diethyl-4,5,6,7-tetrahydrothieno[2,3-c]pyridin-2-yl)-3-((2-methoxyethyl)amino)propanamide] | 300 to 1000 nM | – | < 300 nM
6 | CCC1Cc2c(sc(NC(=O)CCNCCOC)c2-c2nc3ccccc3s2)C(CC)N1 (single isomer, unassigned) [Compound 537, N-(3-(Benzo[d]thiazol-2-yl)-5,7-diethyl-4,5,6,7-tetrahydrothieno[2,3-c]pyridin-2-yl)-3-((2-methoxyethyl)amino)propanamide] | > 10000 nM | < 300 nM | –
7 | COCCNCCC(=O)Nc1sc2c(c1-c1nc3cc(F)ccc3s1)CC(C)NC2C (single isomer, unassigned) [Compound 546, N-(3-(5-Fluorobenzo[d]thiazol-2-yl)-5,7-dimethyl-4,5,6,7-tetrahydrothieno[2,3-c]pyridin-2-yl)-3-((2-methoxyethyl)amino)propanamide] | > 10000 nM | < 300 nM | –
8 | COCCNCCC(=O)Nc1sc2c(c1-c1nc3cc(F)ccc3s1)CC(C)NC2C (single isomer, unassigned) [Compound 547, N-(3-(5-Fluorobenzo[d]thiazol-2-yl)-5,7-dimethyl-4,5,6,7-tetrahydrothieno[2,3-c]pyridin-2-yl)-3-((2-methoxyethyl)amino)propanamide] | 1000 to 10000 nM | < 300 nM | –
9 | COCCNCCC(=O)Nc1sc2c(c1-c1nc3cc(-c4cnn(C)c4)ccc3s1)CC(C)NC2C (single isomer, unassigned) [Compound 564, N-(5,7-Dimethyl-3-(5-(1-methyl-1H-pyrazol-4-yl)benzo[d]thiazol-2-yl)-4,5,6,7-tetrahydrothieno[2,3-c]pyridin-2-yl)-3-((2-methoxyethyl)amino)propanamide] | < 300 nM | – | < 300 nM
10 | COCCNCCC(=O)Nc1sc2c(c1-c1nc3cc(-c4cnn(C)c4)ccc3s1)CC(C)NC2C (single isomer, unassigned) [Compound 565, N-(5,7-Dimethyl-3-(5-(1-methyl-1H-pyrazol-4-yl)benzo[d]thiazol-2-yl)-4,5,6,7-tetrahydrothieno[2,3-c]pyridin-2-yl)-3-((2-methoxyethyl)amino)propanamide] | < 300 nM | < 300 nM | –
11 | COCCNCCC(=O)Nc1sc2c(c1-c1nc3cc(-c4cnn(C)c4)ccc3s1)CC(C)NC2C (single isomer, unassigned) [Compound 566, N-(5,7-Dimethyl-3-(5-(1-methyl-1H-pyrazol-4-yl)benzo[d]thiazol-2-yl)-4,5,6,7-tetrahydrothieno[2,3-c]pyridin-2-yl)-3-((2-methoxyethyl)amino)propanamide] | 1000 to 10000 nM | < 300 nM | –

Continued, values first:

Row | IC50 [1] | IC50 [2] | IC50 ([2]; Homo sapiens, NCI-H2171, 72 h) | SMILES
12 | < 300 nM | – | 300 to 1000 nM | COCCNCCC(=O)Nc1sc2c(c1-c1nc3cc(-c4cccnc4)ccc3s1)CC(C)NC2C (single isomer, unassigned) [Compound 524, N-(5,7-Dimethyl-3-(5-(pyridin-3-yl)benzo[d]thiazol-2-yl)-4,5,6,7-tetrahydrothieno[2,3-c]pyridin-2-yl)-3-((2-methoxyethyl)amino)propanamide]
13 | < 300 nM | < 300 nM | – | COCCNCCC(=O)Nc1sc2c(c1-c1nc3cc(-c4cccnc4)ccc3s1)CC(C)NC2C (single isomer, unassigned) [Compound 525, N-(5,7-Dimethyl-3-(5-(pyridin-3-yl)benzo[d]thiazol-2-yl)-4,5,6,7-tetrahydrothieno[2,3-c]pyridin-2-yl)-3-((2-methoxyethyl)amino)propanamide]
14 | < 300 nM | – | < 300 nM | COCCNCCC(=O)Nc1sc2c(c1-c1nc3cc(F)ccc3s1)CC(C)NC2C (single isomer, unassigned) [Compound 544, N-(3-(5-Fluorobenzo[d]thiazol-2-yl)-5,7-dimethyl-4,5,6,7-tetrahydrothieno[2,3-c]pyridin-2-yl)-3-((2-methoxyethyl)amino)propanamide]
15 | < 300 nM | < 300 nM | – | COCCNCCC(=O)Nc1sc2c(c1-c1nc3cc(F)ccc3s1)CC(C)NC2C (single isomer, unassigned) [Compound 545, N-(3-(5-Fluorobenzo[d]thiazol-2-yl)-5,7-dimethyl-4,5,6,7-tetrahydrothieno[2,3-c]pyridin-2-yl)-3-((2-methoxyethyl)amino)propanamide]
16 | < 300 nM | < 300 nM | – | COCCNCCC(=O)Nc1sc2c(c1-c1nc3cc(-c4ccncc4)ccc3s1)CCNC2C (single isomer, unassigned) [Compound 548, 3-((2-Methoxyethyl)amino)-N-(7-methyl-3-(5-(pyridin-4-yl)benzo[d]thiazol-2-yl)-4,5,6,7-tetrahydrothieno[2,3-c]pyridin-2-yl)propanamide]
17 | < 300 nM | – | < 300 nM | COCCNCCC(=O)Nc1sc2c(c1-c1nc3cc(-c4ccncc4)ccc3s1)CC(C)NC2 (single isomer, unassigned) [Compound 549, 3-((2-Methoxyethyl)amino)-N-(5-methyl-3-(5-(pyridin-4-yl)benzo[d]thiazol-2-yl)-4,5,6,7-tetrahydrothieno[2,3-c]pyridin-2-yl)propanamide]
18 | < 300 nM | – | < 300 nM | COCCNCCC(=O)Nc1sc2c(c1-c1nc3cc(C(F)(F)F)ccc3s1)CC(C)NC2 (single isomer, unassigned) [Compound 550, 3-((2-Methoxyethyl)amino)-N-(5-methyl-3-(5-(trifluoromethyl)benzo[d]thiazol-2-yl)-4,5,6,7-tetrahydrothieno[2,3-c]pyridin-2-yl)propanamide]
19 | < 300 nM | < 300 nM | – | COCCNCCC(=O)Nc1sc2c(c1-c1nc3cc(C(F)(F)F)ccc3s1)CC(C)NC2 (single isomer, unassigned) [Compound 551, 3-((2-Methoxyethyl)amino)-N-(5-methyl-3-(5-(trifluoromethyl)benzo[d]thiazol-2-yl)-4,5,6,7-tetrahydrothieno[2,3-c]pyridin-2-yl)propanamide]
